US4243408A, “Herbicidal N-triazolylmethyl-substituted alpha-haloacetanilide” (Chevron Research Company, priority 1978, dated 1981)

Test system: Pigweed (Amaranthus retroflexus)
Experiment: Post-Emergent Test, herbicidal effectiveness
Assay type: in vivo
Details: post-emergence, 504 h, 33 micrograms per cm^2, 3 weeks, 0-to-100 scale, read-out: Herbicidal Effectiveness, % Control Post, P

SMILES | pest or weed control at 5000 µg/mL, 33 µg/cm2 [%]
CCc1nnc(CNc2c(CC)cccc2CC)[nH]1 [Compound 8A] | 0
CCc1cccc(C)c1N(Cc1nnc(C(C)C)[nH]1)C(=O)CCl [Compound 16B] | 40
Cc1nnc(CCNc2c(C)cccc2C)[nH]1 [Compound 10A] | 0
CCc1nnc(CNc2c(C)cccc2CC)[nH]1 [Compound 15A] | 0
Cc1nnc(CNc2ccccc2C)[nH]1 [Compound 25A] | 0
CCc1cccc(C)c1N(Cc1nnc(C)o1)C(=O)CCl [Compound 4] | 0

Test system: Lambsquarter (Chenopodium album)
Experiment: Post-Emergent Test, herbicidal effectiveness
Assay type: in vivo
Details: post-emergence, 504 h, 33 micrograms per cm^2, 3 weeks, 0-to-100 scale, read-out: Herbicidal Effectiveness, % Control Post, L

SMILES | pest or weed control at 5000 µg/mL, 33 µg/cm2 [%]
CCc1nnc(CNc2c(CC)cccc2CC)[nH]1 [Compound 8A] | 0
CCc1cccc(C)c1N(Cc1nnc(C(C)C)[nH]1)C(=O)CCl [Compound 16B] | 35
Cc1nnc(CCNc2c(C)cccc2C)[nH]1 [Compound 10A] | 0
CCc1nnc(CNc2c(C)cccc2CC)[nH]1 [Compound 15A] | 0
Cc1nnc(CNc2ccccc2C)[nH]1 [Compound 25A] | 0
CCc1cccc(C)c1N(Cc1nnc(C)o1)C(=O)CCl [Compound 4] | 0

Test system: Mustard (Brassica arvensis)
Experiment: Post-Emergent Test, herbicidal effectiveness
Assay type: in vivo
Details: post-emergence, 504 h, 33 micrograms per cm^2, 3 weeks, 0-to-100 scale

SMILES | pest or weed control at 5000 µg/mL, 33 µg/cm2 [%]
CCc1nnc(CNc2c(CC)cccc2CC)[nH]1 [Compound 8A] | 0
CCc1cccc(C)c1N(Cc1nnc(C(C)C)[nH]1)C(=O)CCl [Compound 16B] | 40
Cc1nnc(CCNc2c(C)cccc2C)[nH]1 [Compound 10A] | 0
CCc1nnc(CNc2c(C)cccc2CC)[nH]1 [Compound 15A] | 0
Cc1nnc(CNc2ccccc2C)[nH]1 [Compound 25A] | 0
CCc1cccc(C)c1N(Cc1nnc(C)o1)C(=O)CCl [Compound 4] | 0

Test system: Watergrass (Echinochloa)
Experiment: Post-Emergent Test, herbicidal effectiveness
Assay type: in vivo
Details: post-emergence, 504 h, 33 micrograms per cm^2, 3 weeks, 0-to-100 scale, read-out: Herbicidal Effectiveness, % Control Post, W

SMILES | pest or weed control at 5000 µg/mL, 33 µg/cm2 [%]
CCc1nnc(CNc2c(CC)cccc2CC)[nH]1 [Compound 8A] | 0
CCc1cccc(C)c1N(Cc1nnc(C(C)C)[nH]1)C(=O)CCl [Compound 16B] | 75
Cc1nnc(CCNc2c(C)cccc2C)[nH]1 [Compound 10A] | 0
CCc1nnc(CNc2c(C)cccc2CC)[nH]1 [Compound 15A] | 0
Cc1nnc(CNc2ccccc2C)[nH]1 [Compound 25A] | 0
CCc1cccc(C)c1N(Cc1nnc(C)o1)C(=O)CCl [Compound 4] | 60

Test system: Crabgrass (Digitaria sanguinalis)
Experiment: Post-Emergent Test, herbicidal effectiveness
Assay type: in vivo
Details: post-emergence, 504 h, 33 micrograms per cm^2, 3 weeks, 0-to-100 scale, read-out: Herbicidal Effectiveness, % Control Post, C

SMILES | pest or weed control at 5000 µg/mL, 33 µg/cm2 [%]
CCc1nnc(CNc2c(CC)cccc2CC)[nH]1 [Compound 8A] | 0
CCc1cccc(C)c1N(Cc1nnc(C(C)C)[nH]1)C(=O)CCl [Compound 16B] | 70
Cc1nnc(CCNc2c(C)cccc2C)[nH]1 [Compound 10A] | 0
CCc1nnc(CNc2c(C)cccc2CC)[nH]1 [Compound 15A] | 0
Cc1nnc(CNc2ccccc2C)[nH]1 [Compound 25A] | 0
CCc1cccc(C)c1N(Cc1nnc(C)o1)C(=O)CCl [Compound 4] | 20

Test system: Wild Oats (Avena fatua)
Experiment: Post-Emergent Test, herbicidal effectiveness
Assay type: in vivo
Details: post-emergence, 504 h, 33 micrograms per cm^2, 3 weeks, 0-to-100 scale, read-out: Herbicidal Effectiveness, % Control Post, O

SMILES | pest or weed control at 5000 µg/mL, 33 µg/cm2 [%]
CCc1nnc(CNc2c(CC)cccc2CC)[nH]1 [Compound 8A] | 0
CCc1cccc(C)c1N(Cc1nnc(C(C)C)[nH]1)C(=O)CCl [Compound 16B] | 70
Cc1nnc(CCNc2c(C)cccc2C)[nH]1 [Compound 10A] | 0
CCc1nnc(CNc2c(C)cccc2CC)[nH]1 [Compound 15A] | 0
Cc1nnc(CNc2ccccc2C)[nH]1 [Compound 25A] | 0
CCc1cccc(C)c1N(Cc1nnc(C)o1)C(=O)CCl [Compound 4] | 50

Test system: Pigweed (Amaranthus retroflexus)
Experiment: Pre-Emergent Test, herbicidal effectiveness
Assay type: in vivo
Details: pre-emergence, 504 h, 33 micrograms per cm^2, 3 weeks, 0-to-100 scale, read-out: Herbicidal Effectiveness, % Control Pre, P
Experimental: (§1) An acetone solution of the test compound was prepared by mixing 750 mg of the compound, 220 mg of a nonionic surfactant and 25 ml of acetone. This solution was added to approximately 125 ml of water containing 156 mg of surfactant.
(§2) Seeds of the test vegetation were planted in a pot of soil and the test solution was sprayed uniformly onto the soil surface at a dose of 33 micrograms/cm^2. The pot was watered and placed in a greenhouse. […] At the end of this period, the herbicidal effectiveness of the compound was rated based on the physiological observations. A 0-to-100 scale was used, 0 representing no phytotoxicity, 100 representing complete kill.

SMILES | pest or weed control at 33 µg/cm2 [%]
CCc1nnc(CNc2c(CC)cccc2CC)[nH]1 [Compound 8A] | 0
CCc1cccc(C)c1N(Cc1nnc(C(C)C)[nH]1)C(=O)CCl [Compound 16B] | 95
Cc1nnc(CCNc2c(C)cccc2C)[nH]1 [Compound 10A] | 0
CCc1nnc(CNc2c(C)cccc2CC)[nH]1 [Compound 15A] | 0
Cc1nnc(CNc2ccccc2C)[nH]1 [Compound 25A] | 0
CCc1cccc(C)c1N(Cc1nnc(C)o1)C(=O)CCl [Compound 4] | 65

Test system: Lambsquarter (Chenopodium album)
Experiment: Pre-Emergent Test, herbicidal effectiveness
Assay type: in vivo
Details: pre-emergence, 504 h, 33 micrograms per cm^2, 3 weeks, 0-to-100 scale, read-out: Herbicidal Effectiveness, % Control Pre, L
Experimental: as §1, §2

SMILES | pest or weed control at 33 µg/cm2 [%]
CCc1nnc(CNc2c(CC)cccc2CC)[nH]1 [Compound 8A] | 0
CCc1cccc(C)c1N(Cc1nnc(C(C)C)[nH]1)C(=O)CCl [Compound 16B] | 100
Cc1nnc(CCNc2c(C)cccc2C)[nH]1 [Compound 10A] | 0
CCc1nnc(CNc2c(C)cccc2CC)[nH]1 [Compound 15A] | 0
Cc1nnc(CNc2ccccc2C)[nH]1 [Compound 25A] | 0
CCc1cccc(C)c1N(Cc1nnc(C)o1)C(=O)CCl [Compound 4] | 10

Test system: Mustard (Brassica arvensis)
Experiment: Pre-Emergent Test, herbicidal effectiveness
Assay type: in vivo
Details: pre-emergence, 504 h, 33 micrograms per cm^2, 3 weeks, 0-to-100 scale
Experimental: as §1, §2

SMILES | pest or weed control at 33 µg/cm2 [%]
CCc1nnc(CNc2c(CC)cccc2CC)[nH]1 [Compound 8A] | 0
CCc1cccc(C)c1N(Cc1nnc(C(C)C)[nH]1)C(=O)CCl [Compound 16B] | 95
Cc1nnc(CCNc2c(C)cccc2C)[nH]1 [Compound 10A] | 0
CCc1nnc(CNc2c(C)cccc2CC)[nH]1 [Compound 15A] | 0
Cc1nnc(CNc2ccccc2C)[nH]1 [Compound 25A] | 0
CCc1cccc(C)c1N(Cc1nnc(C)o1)C(=O)CCl [Compound 4] | 10

Test system: Watergrass (Echinochloa)
Experiment: Pre-Emergent Test, herbicidal effectiveness
Assay type: in vivo
Details: pre-emergence, 504 h, 33 micrograms per cm^2, 3 weeks, 0-to-100 scale, read-out: Herbicidal Effectiveness, % Control Pre, W
Experimental: as §1, §2

SMILES | pest or weed control at 33 µg/cm2 [%]
CCc1nnc(CNc2c(CC)cccc2CC)[nH]1 [Compound 8A] | 0
CCc1cccc(C)c1N(Cc1nnc(C(C)C)[nH]1)C(=O)CCl [Compound 16B] | 100
Cc1nnc(CCNc2c(C)cccc2C)[nH]1 [Compound 10A] | 0
CCc1nnc(CNc2c(C)cccc2CC)[nH]1 [Compound 15A] | 0
Cc1nnc(CNc2ccccc2C)[nH]1 [Compound 25A] | 0
CCc1cccc(C)c1N(Cc1nnc(C)o1)C(=O)CCl [Compound 4] | 100

Test system: Crabgrass (Digitaria sanguinalis)
Experiment: Pre-Emergent Test, herbicidal effectiveness
Assay type: in vivo
Details: pre-emergence, 504 h, 33 micrograms per cm^2, 3 weeks, 0-to-100 scale, read-out: Herbicidal Effectiveness, % Control Pre, C
Experimental: as §1, §2

SMILES | pest or weed control at 33 µg/cm2 [%]
CCc1nnc(CNc2c(CC)cccc2CC)[nH]1 [Compound 8A] | 0
CCc1cccc(C)c1N(Cc1nnc(C(C)C)[nH]1)C(=O)CCl [Compound 16B] | 100
Cc1nnc(CCNc2c(C)cccc2C)[nH]1 [Compound 10A] | 0
CCc1nnc(CNc2c(C)cccc2CC)[nH]1 [Compound 15A] | 0
Cc1nnc(CNc2ccccc2C)[nH]1 [Compound 25A] | 0
CCc1cccc(C)c1N(Cc1nnc(C)o1)C(=O)CCl [Compound 4] | 100

Test system: Wild Oats (Avena fatua)
Experiment: Pre-Emergent Test, herbicidal effectiveness
Assay type: in vivo
Details: pre-emergence, 504 h, 33 micrograms per cm^2, 3 weeks, 0-to-100 scale, read-out: Herbicidal Effectiveness, % Control Pre, O
Experimental: as §1, §2

SMILES | pest or weed control at 33 µg/cm2 [%]
CCc1nnc(CNc2c(CC)cccc2CC)[nH]1 [Compound 8A] | 0
CCc1cccc(C)c1N(Cc1nnc(C(C)C)[nH]1)C(=O)CCl [Compound 16B] | 100
Cc1nnc(CCNc2c(C)cccc2C)[nH]1 [Compound 10A] | 0
CCc1nnc(CNc2c(C)cccc2CC)[nH]1 [Compound 15A] | 0
Cc1nnc(CNc2ccccc2C)[nH]1 [Compound 25A] | 0
CCc1cccc(C)c1N(Cc1nnc(C)o1)C(=O)CCl [Compound 4] | 93
